Test in all cases: NCI tumour cell line growth inhibition, 48 h
Assay [1] has as its system COLO 205.
Assay [2] has as its system DU-145.
For assay [3], the system named is HCC 2998.
The test system of assay [4] is HCT-116.
Assay [5] concerns HCT-15.
Assay [6] deals with HOP-92.
For assay [7], the system named is HT-29.
Assay [8] concerns IGROV-1.
Assay [9] concerns KM12.
Assay [10] has as its system MDA-MB-435.
Assay [11] concerns Malme-3M.
Assay [12] relates to OVCAR-3.
Assay [13] deals with OVCAR-8.
Assay [14] concerns PC-3.
For assay [15], the system named is RPMI-8226.
Assay [16] has as its system SK-MEL-28.
The test system of assay [17] is UACC-257.
Assay [18] relates to UO-31.
Assay [19] concerns HOP-62.
Assay [20] has as its system RXF 393.

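In this assay, cells in 96-well plates receive the compound at five concentrations for 48 hours. Endpoints are linearly interpolated between the surrounding concentrations. GI50 = concentration required for 50% inhibition of growth.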 Active and inactive are the calls of the source. Rule as the data show it: active = GI50 up to about 1.1 µM and inactive = higher.

As for `CCCCc1ccc(Nc2nc(S)c3[nH]cnc3n2)cc1`, the GI50 in assay [1] is 16.6 µM (inactive); in assay [2], 35.5 µM (inactive); in [3], 25.5 µM (inactive); in assay [4], 25.5 µM (inactive); in assay [5], 37.5 µM; in assay [6] it was 32.4 µM (inactive). The GI50 in assay [7] was 10.3 µM (inactive); in [8], 18.7 µM (inactive); in [9], 11.4 µM (inactive); in [10], 17.1 µM (inactive); in assay [11], 22 µM (inactive); in [12] it was 16.1 µM (inactive). For the same molecule, the GI50 was > 10 µM (inactive) in [13]; 29.7 µM (inactive) in assay [14]; 44.5 µM (inactive) in assay [15]; 22.9 µM (inactive) in assay [16]; 21.6 µM (inactive) in assay [17]; 28.1 µM (inactive) in [18].

On to `CS(=O)(=O)c1nc(-c2cc3c(c(S(C)(=O)=O)n2)CCCC3)cc2c1CCCC2`, for which the GI50 in assay [1] was > 100 µM (inactive); in assay [2] it was > 100 µM (inactive); in [3], > 100 µM (inactive); in assay [4] it was > 100 µM (inactive); in [5], greater than 100 µM; in [19], 21 µM (inactive). Also, the GI50 in assay [7] was > 100 µM (inactive); in assay [8], > 21.8 µM (inactive); in assay [9], > 100 µM (inactive); in assay [10], > 100 µM (inactive); in assay [11] it was > 100 µM (inactive); in [12] it was > 100 µM (inactive). Also, the GI50 was > 35.4 µM (inactive) in assay [13]; > 100 µM (inactive) in assay [14]; > 100 µM (inactive) in [15]; 26.1 µM (inactive) in assay [20]; > 100 µM (inactive) in assay [16]; > 100 µM (inactive) in assay [17]. The GI50 in assay [18] was 0.048 µM (active).

Turning to `Cc1cccc2c1Oc1cc(Cl)ccc1C2NC(=O)CCN1CCN(CCO)CC1` (stereo unspecified), the GI50 in [1] was 17.7 µM (inactive); in assay [2], 27.2 µM (inactive); in [3] it was 28.6 µM (inactive); in [4], 18.6 µM (inactive); in [5] it was 18.4 µM; in assay [19], 17.2 µM (inactive). Also, the GI50 in assay [6] was 10.7 µM (inactive); in assay [7] it was 15 µM (inactive); in [8], 22.1 µM (inactive); in [9] it was 3.55 µM (inactive); in assay [10], 14 µM (inactive); in assay [12], 17.7 µM (inactive). The GI50 in [13] is 13.4 µM (inactive); in assay [14] it was 14.5 µM (inactive); in assay [16], 3.13 µM (inactive); in assay [17], 16.6 µM (inactive); in assay [18], 12.8 µM (inactive).

For `CCOC(=O)c1ccc(-c2ccc(Cl)cc2)[nH]1`, the GI50 in assay [2] is > 10 µM (inactive); in assay [3] it was > 10 µM (inactive); in [4], > 10 µM (inactive); in [5] it was greater than 10 µM; in [6], > 10 µM (inactive); in assay [7] it was > 10 µM (inactive). Besides, the GI50 in assay [8], in assay [9], in [10], in [11], in [12] and in assay [13] was > 10 µM (inactive) each time. Also, the GI50 is 0.0161 µM (active) in [14], > 10 µM (inactive) in assay [17] and > 10 µM (inactive) in assay [18].

Turning to `O=C(CSc1nnc(-c2ccccn2)s1)N/N=C/c1ccccc1`, the GI50 in assay [1] is > 100 µM (inactive); in assay [2], > 100 µM (inactive); in assay [4], > 100 µM (inactive); in assay [5], greater than 100 µM; in assay [19] it was 51.5 µM (inactive); in [6], 86.7 µM (inactive). In addition, the GI50 in [7] is > 100 µM (inactive); in [8], > 100 µM (inactive); in [9], > 100 µM (inactive); in [10], > 100 µM (inactive); in assay [11] it was 97.7 µM (inactive); in assay [12], > 100 µM (inactive). Further, the GI50 in [13] is > 100 µM (inactive); in assay [14] it was > 100 µM (inactive); in assay [16], > 100 µM (inactive); in assay [17], > 100 µM (inactive); in [18] it was 39.4 µM (inactive).
